Results published in US20220265629A1, “TREATMENT OF SYSTOLIC DYSFUNCTION AND HEART FAILURE WITH REDUCED EJECTION FRACTION WITH THE COMPOUND (R)-4-(1-((3-(DIFLUOROMETHYL)-1-METHYL-1H-PYRAZOL-4-YL)SULFONYL)-1-FLUOROETHYL)-N-(ISOXAZOL-3-YL)PIPERIDINE-1-CARBOXAMIDE” (MyoKardia, Inc., priority 2019, published 2022).
Like-named read-outs stand apart in the source and are kept apart here.

Experiment: Single ascending oral dose study in healthy volunteers: plasma pharmacokinetics
Assay type: in vivo, human
Conditions: for Plasma concentration, Mean / concentration at 6 h: 6 Hours Postdose; for concentration at 6 h / concentration at 12 h / concentration at 24 h / concentration at 48 h / concentration at 72 h / AUC(0-t) / AUC(0-inf) / Cmax / half-life / MRT / Tmax / Vd/F: human, plasma, oral; for concentration at 12 h: 12 Hours Postdose; for concentration at 24 h: 24 Hours Postdose; for concentration at 48 h: 48 Hours Postdose; for concentration at 72 h: 72 Hours Postdose
Description: This example describes the first-in-human study of Compound I. Based on its mechanism of action, Compound I may offer a targeted therapy for patients with DCM caused by genetic or nongenetic mechanisms. The study was a randomized, double-blind, placebo-controlled, sequential group, single-ascending (oral) close study in healthy subjects aged 18-55 years. Eight dosing cohorts, each comprising eight healthy subjects, were enrolled. Within each cohort, subjects were randomized 6:2 to Compound I:placebo.
Subjects were resident at the clinical site for up to 5 days and 4 nights, from Day −1 (the day before dosing) to Day 4, and received a single dose of Compound I or placebo on Day 1. ECG telemetry was initiated 1 hour preclose and continued through 48 hours postclose (Day 3). Any subject with a preclose resting HR≥80 beats per minute was considered ineligible and not treated. […] Subjects returned for a safety follow-up visit 7 days (±1 day) after dosing.
All randomized study subjects received either Compound I or matching placebo as a single oral dose after a fasting period of at least 6 hours. Compound I drug substance is a crystalline, free-base, synthetic molecule with a molecular weight of 435.4 g/mol.
Compound I was provided as a powder for oral suspension. Placebo was provided as calcium carbonate powder. Both treatments were closed orally as a suspension. The suspension was made using Ora-Plus® suspending vehicle (Perrigo) and a cherry syrup flavoring vehicle (Humco), mixed 50% to 50%. The suspension was followed by approximately 100 mL water. The suspension was made up within 14 days from the time in which it was closed which was consistent with the stability data on the suspension. The suspension was made up so the volume administered to the subjects who received Compound I was the same at 20 mL.
Each subject received a close according to the cohort in which they were enrolled. Cohorts were enrolled sequentially, with each cohort receiving an escalated dose of Compound I. The closes administered were 3 mg, 10 mg, 25 mg, 50 mg, 100 mg, 175 mg, 350 mg, and 525 mg, respectively.
The concentrations of Compound I in human plasma and urine were quantitated by high performance liquid chromatography with tandem mass spectrometric detection (LC MS/MS) (Biological sample analysis study report Alturas AD17-726). Plasma samples were extracted by protein precipitation with acetonitrile containing internal standard MYK-5654. The calibration curves were linear over concentration range of 0.500 to 1000 ng/mL with a lower limit of quantification (LLOQ) of 0.500 ng/mL.
The PK Population included all subjects who received Compound I. Blood samples were collected for PK assessments. The actual timing of the samples may have been modified and/or up to an additional 2 samples may have been requested by the SRC after review of the data from previous cohorts. It was important that PK sampling occurred as closely as possible to the scheduled time (±10%). Both blood and urine samples were used for PK assessments.
In addition, for subjects who received placebo, a single plasma sample near the predicted tmax of Compound I was evaluated to confirm the lack of circulating Compound I. Plasma concentration data for Compound I was summarized using descriptive statistics, including mean, standard deviation (SD), median, minimum, and maximum values, and percent coefficient of variation. Other PK parameters included (but were not limited to) Cmax, tmax, AUC, t1/2, and MRT. Additionally, the apparent terminal-phase terminal half-life was calculated. The close proportionality of AUC and Cmax was explored.

[1] = 3 mg, 3 mg, read-out: Plasma concentration, Geometric Mean
[2] = 3 mg, 3 mg, read-out: Plasma concentration, Mean
[3] = 3 mg, 3 mg, read-out: Plasma concentration, Median
[4] = 10 mg, 10 mg, read-out: Plasma concentration, Geometric Mean
[5] = 10 mg, 10 mg, read-out: Plasma concentration, Mean
[6] = 10 mg, 10 mg, read-out: Plasma concentration, Median

## Cn1cc(S(=O)(=O)[C@@](C)(F)C2CCN(C(=O)Nc3ccon3)CC2)c(C(F)F)n1 [Compound I, (R)-4-(1-((3-(difluoromethyl)-1-methyl-1H-pyrazol-4-yl)sulfonyl)-1-fluoroethyl)-N-(isoxazol-3-yl)piperidine-1-carboxamide]
3 mg
  CL/F, Geometric Mean: 4.15 L/h
  CL/F, Mean: 4.26 L/h
  CL/F, Median: 4.22 L/h
  Extrapolation, Geometric Mean: 2.71%
  Extrapolation, Mean: 2.78%
  Extrapolation, Median: 2.82%
10 mg
  CL/F, Geometric Mean: 2.99 L/h
  CL/F, Mean: 3.06 L/h
  CL/F, Median: 2.88 L/h
  Extrapolation, Geometric Mean: 1.59%
  Extrapolation, Mean: 1.90%
  Extrapolation, Median: 2.24%
25 mg
  CL/F, Geometric Mean: 3.55 L/h
  CL/F, Mean: 3.69 L/h
  CL/F, Median: 3.32 L/h
  Extrapolation, Geometric Mean: 1.45%
  Extrapolation, Mean: 1.72%
  Extrapolation, Median: 1.92%
50 mg
  CL/F, Geometric Mean: 4.47 L/h
  CL/F, Mean: 4.53 L/h
  CL/F, Median: 4.46 L/h
  Extrapolation, Geometric Mean: 0.46%
  Extrapolation, Mean: 0.91%
  Extrapolation, Median: 0.46%
100 mg
  CL/F, Geometric Mean: 4.69 L/h
  CL/F, Mean: 4.76 L/h
  CL/F, Median: 5.33 L/h
  Extrapolation, Geometric Mean: 0.36%
  Extrapolation, Mean: 5.48%
  Extrapolation, Median: 0.14%
175 mg
  CL/F, Geometric Mean: 4.57 L/h
  CL/F, Mean: 4.66 L/h
  CL/F, Median: 4.45 L/h
  Extrapolation, Geometric Mean: 0.14%
  Extrapolation, Mean: 0.17%
  Extrapolation, Median: 0.16%
350 mg
  CL/F, Geometric Mean: 4.75 L/h
  CL/F, Mean: 4.95 L/h
  CL/F, Median: 4.75 L/h
  Extrapolation, Geometric Mean: 0.37%
  Extrapolation, Mean: 0.60%
  Extrapolation, Median: 0.43%
  Plasma concentration, Mean: 2660.000 ng/mL
350 mg + 525 mg
  AUC0-∞, Mean: 74358.88 ng·h/mL
  CL/F, Geometric Mean: 6.04 L/h
  CL/F, Mean: 6.51 L/h
  CL/F, Median: 6.10 L/h
  Extrapolation, Geometric Mean: 0.29%
  Extrapolation, Mean: 0.59%
  Extrapolation, Median: 0.32%
  Tmax, Mean: 4.96 h
  Plasma concentration, Mean: 2437.500 ng/mL
525 mg
  CL/F, Geometric Mean: 7.66 L/h
  CL/F, Mean: 8.07 L/h
  CL/F, Median: 7.64 L/h
  Extrapolation, Geometric Mean: 0.22%
  Extrapolation, Mean: 0.59%
  Extrapolation, Median: 0.23%
  Plasma concentration, Mean: 2215.000 ng/mL
All dose groups, 95% CI 0.8358-0.9417
  dose proportionality, power model slope: 0.8888
[1]
  concentration at 6 h: 35.2 ng/mL
  concentration at 12 h: 21.5 ng/mL
  concentration at 24 h: 11 ng/mL
  concentration at 48 h: 2.29 ng/mL
[2]
  concentration at 6 h: 35.8 ng/mL
  concentration at 12 h: 21.9 ng/mL
  concentration at 24 h: 11.3 ng/mL
  concentration at 48 h: 2.7 ng/mL
  concentration at 72 h: 0.586 ng/mL
[3]
  concentration at 6 h: 33.5 ng/mL
  concentration at 12 h: 21.7 ng/mL
  concentration at 24 h: 10.8 ng/mL
  concentration at 48 h: 2.34 ng/mL
  concentration at 72 h: 0.449 ng/mL
3 mg, read-out: AUC0-24, Geometric Mean
  AUC(0-t): 514 ng·h/mL
3 mg, read-out: AUC0-24, Mean
  AUC(0-t): 521 ng·h/mL
3 mg, read-out: AUC0-24, Median
  AUC(0-t): 504 ng·h/mL
3 mg, read-out: AUC0-48, Geometric Mean
  AUC(0-t): 676 ng·h/mL
3 mg, read-out: AUC0-48, Mean
  AUC(0-t): 689 ng·h/mL
3 mg, read-out: AUC0-48, Median
  AUC(0-t): 678 ng·h/mL
3 mg, read-out: AUC0-last, Geometric Mean
  AUC(0-t): 702 ng·h/mL
3 mg, read-out: AUC0-last, Mean
  AUC(0-t): 721 ng·h/mL
3 mg, read-out: AUC0-last, Median
  AUC(0-t): 713 ng·h/mL
3 mg, read-out: AUC0-∞, Geometric Mean
  AUC(0-inf): 722 ng·h/mL
3 mg, read-out: AUC0-∞, Mean
  AUC(0-inf): 741 ng·h/mL
3 mg, read-out: AUC0-∞, Median
  AUC(0-inf): 730 ng·h/mL
3 mg, read-out: Cmax, Geometric Mean
  Cmax: 37.6 ng/mL
3 mg, read-out: Cmax, Mean
  Cmax: 38.2 ng/mL
3 mg, read-out: Cmax, Median
  Cmax: 36.5 ng/mL
3 mg, read-out: Half-Life Lambda Z, Geometric Mean (converted)
  half-life: 11.1 h
3 mg, read-out: Half-Life Lambda Z, Mean (converted)
  half-life: 11.3 h
3 mg, read-out: Half-Life Lambda Z, Median (converted)
  half-life: 11.2 h
3 mg, read-out: Mean Residence Time, Geometric Mean
  MRT: 17.3 h
3 mg, read-out: Mean Residence Time, Mean
  MRT: 17.5 h
3 mg, read-out: Mean Residence Time, Median
  MRT: 16.8 h
3 mg, read-out: Tmax, Geometric Mean
  Tmax: 4.33 h
3 mg, read-out: Tmax, Mean
  Tmax: 4.46 h
3 mg, read-out: Tmax, Median
  Tmax: 4 h
3 mg, read-out: Vz/F, Geometric Mean
  Vd/F: 66.5 L
3 mg, read-out: Vz/F, Mean
  Vd/F: 66.9 L
3 mg, read-out: Vz/F, Median
  Vd/F: 65.4 L
[4]
  concentration at 6 h: 129 ng/mL
  concentration at 12 h: 92.8 ng/mL
  concentration at 24 h: 56.3 ng/mL
  concentration at 48 h: 15.8 ng/mL
[5]
  concentration at 6 h: 131 ng/mL
  concentration at 12 h: 94.2 ng/mL
  concentration at 24 h: 57.8 ng/mL
  concentration at 48 h: 16.4 ng/mL
[6]
  concentration at 6 h: 137 ng/mL
  concentration at 12 h: 97.8 ng/mL
  concentration at 24 h: 61.5 ng/mL
